In patent US20230346827A1 (priority 2020, published 2023):

Assays:
[1] = tested on: PBMC and HUVEC + LPS (TLR4 ligand); experiment: BioMAP LPS system; assay type: cell-based, human; conditions: annotated relative to vehicle controls
Source text: (§1) Cell types and stimuli used in each system are as follows: 3C system [HUVEC + (IL-1β, TNFα and IFNy)], 4H system [HUVEC + (IL-4 and histamine)], LPS system [PBMC and HUVEC + LPS (TLR4 ligand)], SAg system [PBMC and HUVEC + TCR ligands], BT system [CD19+ B cells and PBMC + (α-IgM and TCR ligands)], BF4T system [bronchial epithelial cells and HDFn + (TNFα and IL-4)], BE3C system [bronchial epithelial cells + (IL-1β, TNFα and IFNy)], CASM3C system [coronary artery smooth muscle cells + (IL-1 β, TNFα and IFNy)], HDF3CGF system [HDFn + (IL-1β, TNFα, IFNy, EGF, bFGF and PDGF-BB)], KF3CT system [keratinocytes and HDFn + (IL-1β, TNFα, IFNy and TGFβ)], MyoF system [differentiated lung myofibroblasts + (TNFα and TGFβ)] and Mphg system [HUVEC and M1 macrophages + Zymosan (TLR2 ligand)].
(§2) Systems are derived from either single cell types or co-culture systems. Adherent cell types are cultured in 96 or 384-well plates until confluence, followed by the addition of PBMC (SAg and LPS systems). […] Soluble factors from supernatants are quantified using either HTRF® detection, bead-based multiplex immunoassay or capture ELISA. Overt adverse effects of test agents on cell proliferation and viability (cytotoxicity) are detected by sulforhodamine B (SRB) staining, for adherent cells, and alamarBlue® reduction for cells in suspension. […]

[2] = tested on: bronchial epithelial cells and HDFn + (TNFα and IL-4); experiment: BioMAP BF4T system; assay type: cell-based, human; conditions: annotated relative to vehicle controls
Source text: as §1, §2

[3] = tested on: differentiated lung myofibroblasts + (TNFα and TGFβ); experiment: BioMAP MyoF system; assay type: cell-based, human; conditions: annotated relative to vehicle controls
Source text: as §1, §2

human PBMC [4] = experiment: Stimulated IL-6 release from human PBMC (ELISA); assay type: cell-based; conditions: 24 h
Experimental: Peripheral blood mononuclear cells (PBMC) were isolated from healthy donors through Ficoll-Paque PLUS (GE Healthcare; 11778538) density centrifugation. PBMC were cultured at 2×10^5 cells/well in the absence (unstimulated PBS vehicle controls) or presence of stimulation (LPS, peptidoglycan, pokeweed mitogen, PHA-L, CpG + IL-15, or Cytostim) in the absence (vehicle) or presence of LMW-DS (Tikomed AB, Viken, Sweden, WO 2016/076780) at three concentrations; 60 µg/ml, 200 µg/ml and 600 µg/ml for 24 hours at 37° C., 5% CO2. Following centrifugation, cell culture supernatants were removed and stored at -20° C. awaiting analysis for IL-6 by ELISA. Levels of IL-6 were quantified in the supernatant by ELISA (R&D systems; DY206) according to manufacturer’s instructions.

human PBMC [5] = experiment: Stimulated cytokine release from human PBMC (5-plex Luminex: IFNγ, IL-8, TNFα, IL-1β, IL-10); assay type: cell-based
Experimental: Example 9 investigated the ability of LMW-DS to modify the secretion of IL-6 from human PBMC arising from the use of various stimuli. The present study performed a broader analysis of the cell culture supernatants arising from Example 9. Thus, peripheral blood mononuclear cells (PBMC) were isolated from healthy donors through Ficoll-Paque PLUS density centrifugation. The PBMC were cultured at 2×10^5 cells/well in the absence (unstimulated PBS vehicle controls) or presence of stimulation (LPS, peptidoglycan, pokeweed mitogen, PHA-L, CpG + IL-15, or Cytostim) in the absence (vehicle) or presence of LMW-DS (Tikomed AB, Viken, Sweden, WO 2016/076780; three concentrations; top concentration 600 µg/ml, 200 µg/ml and 60 µg/ml) for 24 hours at 37° C., 5% CO2.
Accordingly, the treatments were as follows for each PBMC donor: • i. Vehicle • ii. Simulation • iii. Stimulation + LMW-DS (60 µg/ml) • iv. Stimulation + LMW-DS (200 µg/ml) • v. Stimulation + LMW-DS (600 µg/ml) with each assessed in triplicate such that the total numbers of samples were: • 1. LPS; 165 samples (from 11 donors) • 2. Peptidoglycan from B. subtilis; 90 samples (from 6 donors) • 3. PHA-L; 90 samples (from 6 donors) • 4. 0.2 µM CpG + IL-15; 90 samples (from 6 donors) • 5. 1.0 µM CpG + IL-15; 90 samples (from 6 donors) • 6. Pokeweed mitogen; 90 samples (from 6 donors) • 7. 10 µl/ml Cytostim; 90 samples (from 6 donors) • 8. 30 µl/ml Cytostim; 90 samples (from 6 donors)
Following treatment, cell culture supernatants were removed, centrifuged and stored at -20° C. before thawing for multiplex analysis of various cytokines using the 5-plex human magnetic Luminex assay from R&D systems (Cat. No. LXSAHM-05). Luminex analysis was carried out exactly following manufacturer’s protocols.

SARS-CoV-2 = conditions: incubation of SARS-CoV-2 with exogenous LMW-DS; cited from earlier work
[6] = LPS, highest concentration of LMW-DS

## sodium salt of dextran sulfate [LMW-DS]
[1]
  Decreased biomarker activity: sTNFα
  Increased biomarker activity: IL-8
[2]
  Increased biomarker activity: Eot3
[3]
  Increased biomarker activity: IL-8
Human PBMC [4]; CpG 0.2 µM + IL-15, LMW-DS 60-600 µg/ml
  IL-6 release: not generally impacted
Human PBMC [4]; Cytostim 10 µl/ml, LMW-DS 60-600 µg/ml
  IL-6 release: not generally impacted
Human PBMC [4]; LPS 0.01 ng/ml, LMW-DS 60, 200, 600 µg/ml
  IL-6 release: concentration dependent and statistically significant reduction
Human PBMC [4]; PHA-L 1.0 µg/ml, LMW-DS 60-600 µg/ml
  IL-6 release: inhibited significantly in a concentration-dependent manner
Human PBMC [4]; higher concentration of CpG (1.0 µM) + IL-15, LMW-DS 60-600 µg/ml
  IL-6 release: no general impact
Human PBMC [4]; higher concentration of Cytostim (30 µl/ml), LMW-DS 60-600 µg/ml
  IL-6 release: no general impact
Human PBMC [4]; peptidoglycan 30 ng/ml, LMW-DS 60-600 µg/ml
  IL-6 release: little evidence
Human PBMC [4]; pokeweed mitogen 1.0 µg/ml, LMW-DS 60-600 µg/ml
  IL-6 release: not impacted generally
Human PBMC [5]; CpG + IL-15
  IL-8 secretion response: little impact
Human PBMC [5]; Cytostim
  IL-10 secretion: concentration dependent large reduction
  secretion of IFNγ, IL-1β, IL-8, TNFα: small reductions
Human PBMC [5]; LPS, LMW-DS 60-600 µg/ml
  IFNγ secretion: concentration dependent but small reduction
  IL-10 secretion: concentration dependent but small reduction
Human PBMC [5]; [6]
  IL-1β secretion: modest reduction
  IL-8 secretion: modest reduction
  TNFα secretion: modest reduction
Human PBMC [5]; PHA-L
  IFNγ release: small decreases
  IL-8 release: small decreases
  IL-10 secretion: large, concentration dependent decrease
  TNFα release: small decreases
Human PBMC [5]; peptidoglycan
  IL-1β secretion: increases
  TNFα secretion: increases
Human PBMC [5]; peptidoglycan, LMW-DS up to 600 µg/ml
  general reduction in cytokine release: little evidence
Human PBMC [5]; pokeweed mitogen
  IL-10 secretion: concentration-dependent decrease
  secretion of IFNγ, IL-1β, IL-8, TNFα: not impacted generally
SARS-CoV-2
  viral replication within ex vivo human lung tissue explants: reduced viral replication
